The record followed here is patent US8686184B2, “Neprilysin inhibitors” (Theravance, Inc., priority 2011, dated 2014).

This assay concerns the target T1, human neprilysin (EC 3.4.24.11; NEP) (Homo sapiens, UniProt P08473).
T1 construct: purchased R&D Systems, Minneapolis, Minn; 1182-ZN
The assay is described as follows: In vitro enzyme inhibition assay at human NEP (fluorogenic peptide substrate). The format is biochemical. Particulars: recombinant human NEP; 37° C.; substrate Mca-D-Arg-Arg-Leu-Dap-(Dnp)-OH 10 μM; values given as ranges; read-out: pKi values at human NEP (converted). The method, then: In vitro Assays for the Quantitation of Inhibitor Potencies at Human and Rat NEP, and Human ACE
The inhibitory activities of compounds at human and rat neprilysin (EC 3.4.24.11; NEP) and human angiotensin converting enzyme (ACE) were determined using in vitro assays as described below.
Recombinant human NEP and recombinant human ACE were obtained commercially (R&D Systems, Minneapolis, Minn., catalog numbers 1182-ZN and 929-ZN, respectively). The fluorogenic peptide substrate Mca-D-Arg-Arg-Leu-Dap-(Dnp)-OH (Medeiros et al. (1997) Braz. J. Med. Biol. Res. 30:1157-62; Anaspec, San Jose, Calif.) and Abz-Phe-Arg-Lys(Dnp)-Pro-OH (Araujo et al. (2000) Biochemistry 39:8519-8525; Bachem, Torrance, Calif.) were used in the NEP and ACE assays respectively.
The assays were performed in 384-well white opaque plates at 37° C. using the fluorogenic peptide substrates at a concentration of 10 μM in Assay Buffer (NEP: 50 mM HEPES, pH 7.5, 100 mM NaCl, 0.01% polyethylene glycol sorbitan monolaurate (Tween-20), 10 μM ZnSO4; ACE: 50 mM HEPES, pH 7.5, 100 mM NaCl, 0.01% Tween-20, 1 μM ZnSO4).
Test compounds were assayed over the range of concentrations from 10 μM to 20 pM. Test compounds were added to the enzymes and incubated for 30 minute at 37° C. prior to initiating the reaction by the addition of substrate. Reactions were terminated after 20 minutes of incubation at 37° C. by the addition of glacial acetic acid to a final concentration of 3.6% (v/v).
Plates were read on a fluorometer with excitation and emission wavelengths set to 320 nm and 405 nm, respectively Inhibition constants were obtained by nonlinear regression of the data using the equation (GraphPad Software, Inc., San Diego, Calif.): v=v0/[1+(I/K′)] where v is the reaction rate, v0 is the uninhibited reaction rate, I is the inhibitor concentration and K′ is the apparent inhibition constant.
Compounds of the invention were tested in this assay and found to have pKi values at human NEP as follows.

T1 sequence (P08473 52-750 limits assumed): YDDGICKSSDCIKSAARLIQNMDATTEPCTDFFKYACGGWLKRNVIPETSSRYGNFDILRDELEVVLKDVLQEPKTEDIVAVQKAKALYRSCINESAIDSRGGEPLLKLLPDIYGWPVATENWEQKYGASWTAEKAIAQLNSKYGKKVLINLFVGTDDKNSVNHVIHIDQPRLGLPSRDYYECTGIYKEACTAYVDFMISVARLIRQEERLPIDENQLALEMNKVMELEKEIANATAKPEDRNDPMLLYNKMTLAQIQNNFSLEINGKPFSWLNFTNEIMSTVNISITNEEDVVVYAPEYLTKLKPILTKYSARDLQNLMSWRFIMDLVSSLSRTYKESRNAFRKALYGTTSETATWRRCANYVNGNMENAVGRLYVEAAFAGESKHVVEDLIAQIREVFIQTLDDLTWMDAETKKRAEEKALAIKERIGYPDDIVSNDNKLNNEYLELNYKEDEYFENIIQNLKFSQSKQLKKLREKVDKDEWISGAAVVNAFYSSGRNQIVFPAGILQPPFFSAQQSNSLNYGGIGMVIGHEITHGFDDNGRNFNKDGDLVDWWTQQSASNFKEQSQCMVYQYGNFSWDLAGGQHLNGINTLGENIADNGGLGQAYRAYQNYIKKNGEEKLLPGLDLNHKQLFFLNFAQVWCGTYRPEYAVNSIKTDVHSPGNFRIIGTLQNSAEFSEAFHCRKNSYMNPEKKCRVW

Regarding `O=C(N[C@H](Cc1ccccc1)[C@@H](O)C(=O)O)c1cccc(-c2cc(Cl)ccc2C(=O)O)c1` [Example 10-12, 3′-((1R,2R)-1-Benzyl-2-carboxy-2-hydroxy-ethylcarbamoyl)-5-chloro-biphenyl-2-carboxylic acid], the Ki was 12.6 to 100 nM. As to `COc1ccc(C(=O)O)c(-c2cccc(C(=O)N[C@H](Cc3ccccc3)[C@@H](O)C(=O)O)c2)c1` [Example 10-13, 3′-((1R,2R)-1-Benzyl-2-carboxy-2-hydroxy-ethylcarbamoyl)-5-methoxy-biphenyl-2-carboxylic acid], the Ki was 12.6 to 100 nM. For the compound `O=C(N[C@H](Cc1ccccc1)[C@@H](O)C(=O)O)c1cccc(-c2cc(F)ccc2C(=O)O)c1` [Example 10-14, 3′-((1R,2R)-1-Benzyl-2-carboxy-2-hydroxy-ethylcarbamoyl)-5-fluoro-biphenyl-2-carboxylic acid], the Ki was 12.6 to 100 nM. In the case of `Cc1ccc(C(=O)N[C@H](Cc2ccccc2)[C@@H](O)C(=O)O)cc1-c1ccccc1C(=O)O` [Example 10-15, 5′-((1R,2R)-1-Benzyl-2-carboxy-2-hydroxy-ethylcarbamoyl)-2′-methyl-biphenyl-2-carboxylic acid], the Ki was 1.26 to 10 nM. The same measure for `CC(C)c1ccc(C(=O)N[C@H](Cc2ccccc2)[C@@H](O)C(=O)O)cc1-c1ccccc1C(=O)O` [Example 10-17, 5′-((1R,2R)-1-Benzyl-2-carboxy-2-hydroxy-ethylcarbamoyl)-2′-isopropyl-biphenyl-2-carboxylic acid]: 1.26 to 10 nM.

With `CCc1ccc(C(=O)N[C@H](Cc2ccccc2)[C@@H](O)C(=O)O)cc1-c1ccccc1C(=O)O` [Example 10-19, 5′-((1R,2R)-1-Benzyl-2-carboxy-2-hydroxy-ethylcarbamoyl)-2′-ethyl-biphenyl-2-carboxylic acid], the Ki is 1.26 to 10 nM. On to `Cc1ccc(C(=O)N[C@H](Cc2ccccc2)[C@@H](O)C(=O)O)cc1-c1ccccc1CC(=O)O` [Example 10-20, (2R,3R)-3-[(2′-Carboxymethyl-6-methyl-biphenyl-3-carbonyl)-amino]-2-hydroxy-4-phenyl-butyric acid], for which the Ki is 12.6 to 100 nM. Consider `O=C(N[C@H](Cc1ccccc1)[C@@H](O)C(=O)O)c1ccc(N2CCOCC2)c(-c2ccccc2C(=O)O)c1` [Example 10-21, 5′-((1R,2R)-1-Benzyl-2-carboxy-2-hydroxy-ethylcarbamoyl)-2′-morpholin-4-yl-biphenyl-2-carboxylic acid], for which the Ki was 12.6 to 100 nM.

On to `O=C(N[C@H](Cc1ccccc1)[C@@H](O)C(=O)O)c1ccc(Cl)c(-c2ccccc2C(=O)O)c1` [Example 10-22, 5′-((1R,2R)-1-Benzyl-2-carboxy-2-hydroxy-ethylcarbamoyl)-2′-chloro-biphenyl-2-carboxylic acid], for which the Ki was 1.26 to 10 nM. Regarding `O=C(N[C@H](Cc1ccccc1)[C@@H](O)C(=O)O)c1cc(O)cc(-c2ccccc2C(=O)O)c1` [Example 10-24, 3′-((1R,2R)-1-Benzyl-2-carboxy-2-hydroxy-ethylcarbamoyl)-5′-hydroxy-biphenyl-2-carboxylic acid], the Ki is 12.6 to 100 nM. Turning to `O=C(N[C@H](Cc1ccccc1)[C@@H](O)C(=O)O)c1cc(F)cc(-c2ccccc2C(=O)O)c1` [Example 10-25, 3′-((1R,2R)-1-Benzyl-2-carboxy-2-hydroxy-ethylcarbamoyl)-5′-fluoro-biphenyl-2-carboxylic acid], the Ki is 1.26 to 10 nM. In the case of `O=C(N[C@H](Cc1ccccc1)[C@@H](O)C(=O)O)c1cc(Cl)cc(-c2ccccc2C(=O)O)c1` [Example 10-26, 3′-((1R,2R)-1-Benzyl-2-carboxy-2-hydroxy-ethylcarbamoyl)-5′-chloro-biphenyl-2-carboxylic acid], the Ki is 1.26 to 10 nM. Turning to `Cc1cc(C(=O)N[C@H](Cc2ccccc2)[C@@H](O)C(=O)O)cc(-c2ccccc2C(=O)O)c1` [Example 10-27, 3′-((1R,2R)-1-Benzyl-2-carboxy-2-hydroxy-ethylcarbamoyl)-5′-methyl-biphenyl-2-carboxylic acid], the Ki was 12.6 to 100 nM.

For `O=C(N[C@H](Cc1ccccc1)[C@@H](O)C(=O)O)c1ccc(-c2ccccc2)c(C(=O)O)c1` [Example 10-28, 4-((1R,2R)-1-Benzyl-2-carboxy-2-hydroxy-ethylcarbamoyl)-biphenyl-2-carboxylic acid], the Ki is 12.6 to 100 nM. Turning to `O=C(O)c1cc(C(=O)N[C@H](Cc2ccccc2)[C@@H](O)C(=O)O)cc(-c2ccccc2)c1` [Example 10-29, 5-((1R,2R)-1-Benzyl-2-carboxy-2-hydroxy-ethylcarbamoyl)-biphenyl-3-carboxylic acid], the Ki is 12.6 to 100 nM. Turning to `NS(=O)(=O)c1cccc(-c2cccc(C(=O)N[C@H](Cc3ccccc3)[C@@H](O)C(=O)O)c2)c1` [Example 10-30, (2R,3R)-2-Hydroxy-4-phenyl-3-[(3′-sulfamoyl-biphenyl-3-carbonyl)-amino]-butyric acid], the Ki is 12.6 to 100 nM.

Turning to `O=C(N[C@H](Cc1ccccc1)[C@@H](O)C(=O)O)c1cccc(-c2cccc(-c3nnn[nH]3)c2)c1` [Example 10-31, (2R,3R)-2-Hydroxy-4-phenyl-3-{[3′-(1H-tetrazol-5-yl)-biphenyl-3-carbonyl]-amino}-butyric acid], the Ki was 12.6 to 100 nM. `CCc1ccc(C(=O)N[C@H](Cc2ccccc2)[C@@H](O)C(=O)O)cc1` [Example 10-32, (2R,3R)-3-(4-Ethyl-benzoylamino)-2-hydroxy-4-phenyl-butyric acid]: the Ki was 12.6 to 100 nM. Take `CCCc1ccc(C(=O)N[C@H](Cc2ccccc2)[C@@H](O)C(=O)O)cc1` [Example 10-33, (2R,3R)-2-Hydroxy-4-phenyl-3-(4-propyl-benzoylamino)-butyric acid]: the Ki is 12.6 to 100 nM. The same measure for `CC(C)c1ccc(C(=O)N[C@H](Cc2ccccc2)[C@@H](O)C(=O)O)cc1` [Example 10-34, (2R,3R)-2-Hydroxy-3-(4-isopropyl-benzoylamino)-4-phenyl-butyric acid]: 12.6 to 100 nM; for `CCCCc1ccc(C(=O)N[C@H](Cc2ccccc2)[C@@H](O)C(=O)O)cc1` [Example 10-35, (2R,3R)-3-(4-Butyl-benzoylamino)-2-hydroxy-4-phenyl-butyric acid]: 12.6 to 100 nM. On to `CC(C)Cc1ccc(C(=O)N[C@H](Cc2ccccc2)[C@@H](O)C(=O)O)cc1` [Example 10-36, (2R,3R)-2-Hydroxy-3-(4-isobutyl-benzoylamino)-4-phenyl-butyric acid], for which the Ki is 12.6 to 100 nM. Turning to `CCCCCc1ccc(C(=O)N[C@H](Cc2ccccc2)[C@@H](O)C(=O)O)cc1` [Example 10-38, (2R,3R)-2-Hydroxy-3-(4-pentyl-benzoylamino)-4-phenyl-butyric acid], the Ki was 12.6 to 100 nM.

With `O=C(N[C@H](Cc1ccccc1)[C@@H](O)C(=O)O)c1ccc(C2CC2)cc1` [Example 10-39, (2R,3R)-3-(4-Cyclopropyl-benzoylamino)-2-hydroxy-4-phenyl-butyric acid], the Ki was 12.6 to 100 nM. Take `O=C(N[C@H](Cc1ccccc1)[C@@H](O)C(=O)O)c1ccc(C2CCCCC2)cc1` [Example 10-40, (2R,3R)-3-(4-Cyclohexyl-benzoylamino)-2-hydroxy-4-phenyl-butyric acid]: the Ki is 12.6 to 100 nM.

Regarding `CC1=NN(c2ccc(C(=O)N[C@H](Cc3ccccc3)[C@@H](O)C(=O)O)cc2)C(=O)C1` [Example 10-41, (2R,3R)-2-Hydroxy-3-[4-(3-methyl-5-oxo-4,5-dihydro-pyrazol-1-yl)-benzoylamino]-4-phenyl-butyric acid], the Ki is 12.6 to 100 nM.

Turning to `O=C(N[C@H](Cc1ccccc1)[C@@H](O)C(=O)O)c1ccc(-n2cccc2)cc1` [Example 10-43, (2R,3R)-2-Hydroxy-4-phenyl-3-(4-pyrrol-1-yl-benzoylamino)-butyric acid], the Ki was 12.6 to 100 nM. In the case of `O=C(N[C@H](Cc1ccccc1)[C@@H](O)C(=O)O)c1ccc(Cn2cccc2)cc1` [Example 10-44, (2R,3R)-2-Hydroxy-4-phenyl-3-(4-pyrrol-1-ylmethyl-benzoylamino)-butyric acid] it was 12.6 to 100 nM.

Consider `Cc1nnnn1Cc1ccc(C(=O)N[C@H](Cc2ccccc2)[C@@H](O)C(=O)O)cc1` [Example 10-45, (2R,3R)-2-Hydroxy-3-[4-(5-methyl-tetrazol-1-ylmethyl)-benzoylamino]-4-phenyl-butyric acid], for which the Ki is 12.6 to 100 nM. For `O=C(N[C@H](Cc1ccccc1)[C@@H](O)C(=O)O)c1ccc(Cn2ccnc2)cc1` [Example 10-46, (2R,3R)-2-Hydroxy-3-(4-imidazol-1-ylmethyl-benzoylamino)-4-phenyl-butyric acid], the Ki is 12.6 to 100 nM.
